From US20030017146A1, “Arginine decomposing enzyme therapeutic composition” (priority 1996, published 2003)
Entries after “also recorded” stand apart in the source; their conditions may differ.

Tests used:
[1] = system: HeLa Cells (human cervical carcinoma); test: Arginine deprivation of HeLa cells in vitro, survival and recovery (cloning studies); assay type: cell-based
Experimental: Our in vitro work (D. N. Wheatly: Personal communication) with HeLa Cells (human cervical carcinoma) and early passages of human fibroblasts has established limits of survival and recovery after different items of arginine deprivation. […] By 96 hours of deprivation all HeLa cells were dead. In contrast, healthy fibroblasts could be recovered after even 10 days of deprivation.
Further work established that arginine concentration of 1 micro mole per liter had essentially the same effects as total deprivation. At 40 mircomolar, HeLa cycle was already disturbed, and killing of the cells started below 10 mircomolar. Thus our target “killing zone” for HeLa cells is 1 to 10 micromolar concentration of arginine during three to four days of deprivation.

thrombocytes = test: Iloprost infusion against loss of thrombocytes limiting duration of dialysis sessions; assay type: in vivo, dogs; details: dog, infusion at 0.5 to 1.0 ng/kg/hr, last two sessions
Experimental: No systemic problems were seen that would indicate serious threats caused by the lack of arginine. As discussed earlier, loss of thrombocytes was the main factor limiting duration of the sessions. In the last two sessions on the last dog we used yet another infusion pump to deliver iloprost (ILOMEDIN), Schering), a stable analog of prostacyclin (at 0.5 to 1.0 ng/kg/hr). […] By deployment of the approaches described earlier (oxygen supply) this problem will certainly be resolved.

[2] = cited from earlier work
[3] = Continuous hemodialysis removal of arginine with insulin/glucose clamp in healthy dogs; assay type: in vivo; details: dog plasma, direct infusion of insulin and glucose with dialysis, blood flow 300 to 400 ml/min, single filter
Text: We have thus devised an approach combining our technique of extracorporeal blood treatment for removal of arginine (or any number of selected amino acids) with a pharmacological intervention employing an insulin/glucose clamp. As mentioned earlier, insulin is both an inhibitor of muscle protein breakdown (of both lysosomal and proteasomal pathways) and a promoter of protein synthesis. Since the net release of amino acids depends on both of these cellular activities, insulin is an excellent choice.
The upper two curves (dashed lines) are from the two sessions without insulin. Not shown are the concentrations of other amino acids, which could be maintained close to their pre-set levels (determined by their concentrations in the dialyzing fluid).
A detailed description of the experiment performed on one (the first) of the last three dogs is as follows. […]
Concentrations of amino acids in the blood plasma were measured on an amino acid analyzer (Pharmacia, Biochrom 20) using standard procedures of sample preparation. Using a short column and a truncated buffer program, several amino acids (phenylalanine, histidine, 3-methyl-histidine, tryptophan, lysine, and arginine) could be measured in about 30 minutes of analyzer running time. […]

[4] = pH 7.4; cited from earlier work
[5] = cited from earlier work; remark: listed apart in the source

With `N=C(N)NCCC[C@H](N)C(=O)O` [arginine] the “arginine concentration at which the cell cycle was already disturbed” value [1] was 40 mircomolar, the “arginine concentration below which killing of the cells started” value [1] was “below 10 mircomolar” and the “arginine concentration with essentially the same effects as total deprivation” value [1] was 1 micro mole per liter.

In the case of `CC#CCC(C)[C@H](O)/C=C/[C@@H]1[C@H]2C/C(=C/CCCC(=O)O)C[C@H]2C[C@H]1O` (stereo partly shown) [iloprost], the “prolongation of the sessions” value (thrombocytes) is reported as “slight prolongation only”.

For `Cc1ncc(COP(=O)(O)O)c(C=O)c1O` [pyridoxal 5′-phosphate], the half life ([2]; in circulation) is given as “about 15 minutes”.

In the case of `Cc1ncc(CO)c(CO)c1O.Cl` [pyrodoxine hydrochloride, reference compound], the “plasma concentration of pyridoxal 5'-phosphate reached” value ([2]; human plasma, oral supplement of 100 mg/day, normal about 60 nM) is given as 450 nM.

insulin showed an arginine level reached [3] of 1.5 µM.

B1: dADC: inducible (biodegradative) arginine decarboxylase of E. coli, molecular weight 850,000, induced by low pH (protein, UniProt P28629 1-755, looked up)
Biodegradative arginine …: MKVLIVESEFLHQDTWVGNAVERLADALSQQNVTVIKSTSFDDGFAILSSNEAIDCLMFSYQMEHPDEHQNVRQLIGKLHERQQNVPVFLLGDREKALAAMDRDLLELVDEFAWILEDTADFIAGRAVAAMTRYRQQLLPPLFSALMKYSDIHEYSWAAPGHQGGVGFTKTPAGRFYHDYYGENLFRTDMGIERTSLGSLLDHTGAFGESEKYAARVFGADRSWSVVVGTSGSNRTIMQACMTDNDVVVVDRNCHKSIEQGLMLTGAKPVYMVPSRNRYGIIGPIYPQEMQPETLQKKISESPLTKDKAGQKPSYCVVTNCTYDGVCYNAKEAQDLLEKTSDRLHFDEAWYGYARFNPIYADHYAMRGEPGDHNGPTVFATHSTHKLLNALSQASYIHVREGRGAINFSRFNQAYMMHATTSPLYAICASNDVAVSMMDGNSGLSLTQEVIDEAVDFRQAMARLYKEFTADGSWFFKPWNKEVVTDPQTGKTYDFADAPTKLLTTVQDCWVMHPGESWHGFKDIPDNWSMLDPIKVSILAPGMGEDGELEETGVPAALVTAWLGRHGIVPTRTTDFQIMFLFSMGVTRGKWGTLVNTLCSFKRHYDANTPLAQVMPELVEQYPDTYANMGIHDLGDTMFAWLKENNPGARLNEAYSGLPVAEVTPREAYNAIVDNNVELVSIENLPGRIAANSVIPYPPGIPMLLSGENFGDKNSPQVSYLRSLQSWDHHFPGFEHETEGTEIIDGIYHVMCVKA
In the case of B1, the “catalytic activity at physiological pH” value [4] is listed as “vanishes; also recorded: near total loss of activity”.

B2: bADC: biosynthetic arginine decarboxylase of E. coli, tetramer of 296,000 molecular weight requiring pyridoxal 5'-phosphate and magnesium ion (protein, UniProt P21170 1-658, looked up)
Biosynthetic arginine …: MSDDMSMGLPSSAGEHGVLRSMQEVAMSSQEASKMLRTYNIAWWGNNYYDVNELGHISVCPDPDVPEARVDLAQLVKTREAQGQRLPALFCFPQILQHRLRSINAAFKRARESYGYNGDYFLVYPIKVNQHRRVIESLIHSGEPLGLEAGSKAELMAVLAHAGMTRSVIVCNGYKDREYIRLALIGEKMGHKVYLVIEKMSEIAIVLDEAERLNVVPRLGVRARLASQGSGKWQSSGGEKSKFGLAATQVLQLVETLREAGRLDSLQLLHFHLGSQMANIRDIATGVRESARFYVELHKLGVNIQCFDVGGGLGVDYEGTRSQSDCSVNYGLNEYANNIIWAIGDACEENGLPHPTVITESGRAVTAHHTVLVSNIIGVERNEYTVPTAPAEDAPRALQSMWETWQEMHEPGTRRSLREWLHDSQMDLHDIHIGYSSGIFSLQERAWAEQLYLSMCHEVQKQLDPQNRAHRPIIDELQERMADKMYVNFSLFQSMPDAWGIDQLFPVLPLEGLDQVPERRAVLLDITCDSDGAIDHYIDGDGIATTMPMPEYDPENPPMLGFFMVGAYQEILGNMHNLFGDTEAVDVFVFPDGSVEVELSDEGDTVADMLQYVQLDPKTLLTQFRDQVKKTDLDAELQQQFLEEFEAGLYGYTYLEDE
In the case of B2, the “pH of optimal activity” value ([5]; absolute requirement for magnesium ion) is listed as ~8, the “Michaelis constant for pyridoxal 5'-phosphate” value ([5]; cofactor) is listed as 0.6 µM and the specific activity ([5]; enzyme purified 1,000 fold) is listed as 16.4 units/mg. For the same molecule, the “magnesium saturation S0.5” value ([5]; sigmoidal magnesium saturation curve) was 1.3 mM and the “Michaelis constant for arginine” value ([5]; substrate) was 30 µM.
